Source: patent US20050096254A1, “Peptide deformylase activated prodrugs” (priority 2002, published 2005)
Converted amounts (≈) assume the structure as drawn.

Tests used:
[1] = tested on: M. catarrhalis; assay: MIC susceptibility testing (modified NCCLS); assay type: cell-based
Experimental: (§1) The NCCLS (National Committee for Clinical Laboratory Standards), method to determine MIC's of antimicrobial compounds is modified for high-throughput screening. All stocks of tested compounds are prepared in either water or in DMSO depending on solubility. At the highest concentration, DMSO content should not exceed 0.5%. Briefly, twenty 2-fold serial dilutions of test compounds from the highest concentration is made in a 384-well microtiter plate. Each well is inoculated with testing bacteria in broth to a final concentration of approximately 1-1.5×10^6 cells/ml. Bacterial growth is determined by the increase of optical density at 600 nm using a microplate reader (Tecan SpectraFluor Plus).

[2] = tested on: E. coli; assay: MIC susceptibility testing (modified NCCLS); assay type: cell-based; conditions: Table 4, E. coli
Experimental: as §1

Compound: CSCC[C@H](NC=O)C(=O)N[C@@H](CC(C)C)C(=O)Oc1cc(Cl)ccc1Oc1ccc(Cl)cc1Cl [Compound #2]
- MIC ([1]; Table 3, M. catarrhalis ATCC 43627, Exp. #1): ≦0.125 μg/ml
- MIC ([1]; Table 3, M. catarrhalis ATCC 43627, Exp. #2): ≦0.125 μg/ml
- MIC ([1]; Table 3, M. catarrhalis ATCC 43628, Exp. #1): ≦0.125 μg/ml
- MIC ([1]; Table 3, M. catarrhalis ATCC 43628, Exp. #2): ≦0.125 μg/ml
- MIC ([1]; Table 3, M. catarrhalis ATCC 49265, Exp. #1): ≦0.125 μg/ml
- MIC ([1]; Table 3, M. catarrhalis ATCC 49265, Exp. #2): ≦0.125 μg/ml
- MIC ([1]; Table 3, M. catarrhalis ATCC 51584, Exp. #1): ≦0.125 μg/ml
- MIC ([1]; Table 3, M. catarrhalis ATCC 51584, Exp. #2): ≦0.125 μg/ml
- MIC ([2]; Exp. #1): 16 µg/mL (≈ 28.5 µM)
- MIC ([2]; Exp. #2): 16 µg/mL (≈ 28.5 µM)
